Test results published in patent US20240115649A1, “CASPASE INHIBITION TO ENHANCE REGENERATION AND REPAIR AFTER SKIN OR GUT INJURY AND TO TREAT BACTERIAL OR VIRAL INFECTIONS” (The Johns Hopkins University, priority 2020, published 2024).

Columns and labels:
[1] = target: Streptopain (speB) (Streptococcus pyogenes, UniProt P0C0J0); type: biochemical, S. pyogenes
[2] = test system: P. aeruginosa strain Xen41; test: P. aeruginosa skin infection model; type: in vivo; conditions: WT C57BL/6 mice; treatment at 4 hours; vs untreated
[3] = test system: monocytes, macrophages and neutrophils isolated from the infected skin; test: Flow cytometry of single-cell suspensions from CA-MRSA-infected skin; type: in vivo, mice
Experimental: Flow cytometry. 10-mm skin punch biopsies were collected, minced and enzymatically digested in 3 mL RPMI containing 100 μg/mL DNaseI (Sigma-Aldrich) and 1.67 Wunsch U/ml Liberase TL (Roche) for 1 hour at 37° C. and shaken at 140 rpm. Single-cell suspensions were obtained after filtering the digested samples through a 40-μm cell filter using a 3 mL syringe plunger and cells were then washed in RPMI. […] The cells were further labeled for intracellular pMLKL, which was detected via anti-pMLKL mAb that was biotinylated with Biotin conjugation/Fast/Type A kit (Abcam), as per manufacturer's instructions, along with other intracellular mAbs against IL-1β and TNF (Supplemental Table S1). […] For immunophenotyping of Langerhans cells and monocyte-derived dendritic cells (DCs), cells were first gated on CD45^+ and then CD207^+CD103^− (Langerhans cells) and CD45^+CD11c^+CD115^+ monocyte-derived DCs (FIG. 11), modified from previously described methods (61). The absolute numbers of the respective cell populations were calculated as (Total number of live cells X [% of cell population/100]).

[4] = test system: IL-1β; test: Serum IL-1β levels after S. aureus skin inoculation; type: in vivo, mice; conditions: days 1 and 3
Experimental: (§1) Serum IL-1β and TNF levels. Serum IL-1β and TNF protein levels (pg/mL) were measured from serum collected on days 1 and 3 after S. aureus skin inoculation±Q-VD-OPH treatment using Bio-Plex protein assays and normalized to total protein, according to the manufacturer's recommendations (Bio-Rad).

[5] = test system: DSS treated C57BL/J6 mice; test: DSS-induced colitis model; type: in vivo
Text: Histology. Biopsies from mouse colon and skin tissue were removed and fixed in 4% paraformaldehyde overnight and then transferred to 70% ethanol. Samples were then submitted to the Johns Hopkins Oncology Tissue Services Core facility where they were embedded in paraffin. Tissue sections were obtained at 4pin thickness and mounted onto glass slides, followed by hematoxylin and eosin (H&E) staining.
Colitis Model. In order to induce colitis, adult wild-type, Rnasel -A , and Il36r^−/− mice were fed up to 4% (w/v) 36-50 kDa dextran sodium sulfate (DSS) (MP Biomedicals, 160110) in sterile water^37. Weight changes were monitored and recorded every day. For rescue experiments using the pan-caspase inhibitor Q-VD-OPh, mice were treated at the same concentrations as in WIHN experiments and were injected intraperitoneally during the day when noticeable weight loss began to occur (˜day 3-4). Mice were eventually sacrificed and colon lengths were extracted for gross examination and downstream FACS and protein analysis.

[6] = test system: pMLKL, MLKL, ICAD; test: Western blot analysis of infected skin; type: in vivo, mice
[7] = test system: S. pyogenes strain Xen20; type: in vivo; conditions: WT C57BL/6 mice; single dose at 4 hours; vs untreated
[8] = test system: P. aeruginosa strain Xen41; test: Bacterial growth curve kinetics, P. aeruginosa broth cultures; type: cell-based; conditions: 10, 100 and 1,000 μg/mL; vs vehicle
[9] = test system: neutrophils; test: Flow cytometry of skin of Q-VD-OPh-treated mice; type: in vivo; conditions: Q-VD-OPh i.p.; unwounded skin; vs vehicle controls
Experimental: Flow Cytometry. Cell suspensions were prepared by digesting mouse skin tissue in a cocktail consisting of Liberase TL (Roche, 5401020001), DNase I (Sigma, DN25) and antibiotics (Invitrogen, 15140) in RPMI 1640 (Gibco, 11875093). For FACS, cells were washed and first viability stained using the Zombie Aqua dye (BioLegend, 423101). […] Finally, cells were resuspended in BD stabilizing fixative prior to FACS. All flow cytometry experiments were performed on a BD LSR II and downstream analysis of data was performed using Cytobank.

[10] = test system: TNF; test: Serum TNF levels after S. aureus skin inoculation; type: in vivo, mice; conditions: days 1 and 3; vs untreated
Experimental: as §1

[11] = test system: mouse neutrophils; test: Neutrophil cultures with live S. aureus ± caspase inhibitors; conditions: Q-VD-OPH 10 μg/mL, live S. aureus 6 hours
[12] = test system: S. pyogenes strain Xen20; type: cell-based; conditions: 10, 100 and 1,000 μg/mL; vs vehicle
[13] = test system: ASC specks; test: ASC speck formation in ASC-Citrine mice (in vivo FLI, PuLSA assay)
[14] = Q-VD-OPH treated TNF^−/− mice, day 1
[15] = Q-VD-OPH treated WT mice, day 1
[16] = TNF^−/− mice, day 1, vs untreated
[17] = WT mice, infected skin day 1, vs untreated

Chain of Streptopain (speB) (P0C0J0 146-398 limits assumed): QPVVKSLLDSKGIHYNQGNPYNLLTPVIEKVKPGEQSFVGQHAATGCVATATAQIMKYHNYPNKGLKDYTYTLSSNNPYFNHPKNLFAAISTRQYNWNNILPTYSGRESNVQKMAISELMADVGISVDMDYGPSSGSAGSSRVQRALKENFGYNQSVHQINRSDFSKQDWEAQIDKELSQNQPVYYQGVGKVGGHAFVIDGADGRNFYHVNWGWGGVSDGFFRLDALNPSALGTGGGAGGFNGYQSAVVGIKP

SMILES: CC(C)[C@H](NC(=O)c1ccc2ccccc2n1)C(=O)N[C@@H](CC(=O)O)C(=O)COc1c(F)cccc1F [Q-VD-OPH, Quinoline-val-asp-difluorophenoxymethyl ketone]
- physical conformational changes or degradation of speB (protein blot) ([1]; 2 hours at 37° C.): did not induce any physical conformational changes or cause degradation
- activity of speB on gelatinase activity or elastin proteolysis ([1]; 20 hours): did not affect the activity
- bacterial burden (in vivo BLI) [2]: modest but significantly decreased
- skin lesion sizes [2]: modest but significantly decreased skin lesion sizes
- pMLKL+ MFI [3, 14]: 540
- pMLKL+ total cells, absolute numbers [3, 14]: 1.5×10^4 cells
- pMLKL+ total cells, percentage [3, 14]: 15%
- pMLKL+ MFI [3, 15]: 2250
- pMLKL+ total cells, absolute numbers [3, 15]: 1.0×10^5 cells
- pMLKL+ total cells, percentage [3, 15]: 81%
- percentages and absolute number of macrophages ([3]; TNF^−/− mice, day 1): statistically increased
- percentages and absolute number of monocytes ([3]; TNF^−/− mice, day 1, compared with Q-VD-OPH treated WT mice): no increase
- necroptosis (pMLKL+) total leukocytes: MFI, percentages and absolute numbers ([3]; TNF^−/− mice, day 1, vs TNF^−/− untreated): significantly greater
- early apoptotic (Annexin V+) neutrophils [3, 16]: significantly decreased
- early apoptotic cells (Annexin V+) of total leukocytes [3, 16]: significantly decreased
- percentages and absolute number of neutrophils ([3]; TNF^−/− mice, infected skin day 1, vs untreated or Q-VD-OPH treated WT mice): significantly reduced
- intracellular pro-IL-1β: MFI and percentages of total leukocytes (CD45+pro-IL-1β+) ([3]; WT mice, day 1, especially macrophages and neutrophils but not monocytes): increased mean fluorescence intensity (MFI) and percentages of total leukocytes
- TNF+ macrophages ([3]; WT mice, day 1, vs untreated): significantly greater
- TNF+ monocytes ([3]; WT mice, day 1, vs untreated): significantly greater
- TNF+ neutrophils ([3]; WT mice, day 1, vs untreated): significantly greater
- TNF+ total leukocytes (CD45+TNF+): MFI, percentages and absolute number ([3]; WT mice, day 1, vs untreated): significantly greater
- early apoptotic (Annexin V+) monocytes, percentages and absolute numbers ([3]; WT mice, day 1, vs untreated): significantly decreased
- early apoptotic (Annexin V+) neutrophils, percentages and absolute numbers ([3]; WT mice, day 1, vs untreated): significantly decreased
- early apoptotic cells (Annexin V+) of total leukocytes, percentages and absolute numbers ([3]; WT mice, day 1, vs untreated): significantly decreased
- necroptosis (pMLKL+) macrophages ([3]; WT mice, day 1, vs untreated): significantly greater
- necroptosis (pMLKL+) total leukocytes: MFI, percentages and absolute numbers ([3]; WT mice, day 1, vs untreated): significantly greater
- percentages and absolute numbers of neutrophils [3, 17]: no differences
- percentages of macrophages [3, 17]: statistically increased
- percentages of monocytes [3, 17]: statistically increased
- serum levels of IL-1β [4]: decreased serum levels of IL-1β
- gut shortening after DSS treatment ([5]; Il36r^−/− mice): does not rescue gut shortening
- weight loss ([5]; Il36r^−/− mice, DSS): does not rescue weight loss
- IL-36α expression in the gut ([5]; WT mice): Increased IL-36α expression
- neutrophil abundance in the blood or the gut ([5]; regenerative phase following cessation of DSS, vs controls): no change in neutrophil abundance
- DSS-induced weight loss ([5]; wild-type mice, 4% DSS, Q-VD-OPh i.p. 1.33 mM, vs control): protected from DSS-induced weight loss
- colon length and morphology ([5]; wild-type mice, 4% DSS, Q-VD-OPh i.p., vs control): longer and better colon morphology
- necroptosis (pMLKL and MLKL expression) ([6]; TNF^−/− mice, day 1, vs untreated or Q-VD-OPH treated WT mice): reduced necroptosis
- apoptosis (ICAD) ([6]; TNF^−/− mice, infected skin day 1): reduced apoptosis
- apoptosis (ICAD) ([6]; WT mice, infected skin day 1): reduced apoptosis
- necroptosis (pMLKL, MLKL) ([6]; WT mice, infected skin day 1): increases necroptosis
- bacterial burden (in vivo BLI) [7]: rapidly reduced bacterial burden
- skin lesion sizes [7]: substantially decreased skin lesion sizes
- in vitro absorbance and bioluminescence [8]: no differences in in vitro absorbance and bioluminescence
- neutrophil levels in the skin [9]: higher neutrophil levels in the skin
- serum TNF protein levels [10]: increased serum TNF protein levels
- necroptosis (western blot for pMLKL and MLKL) [11]: necroptosis was increased
- percentages of TNF+ neutrophils ([11]; Emricasan 9 μg/mL): 25.47%
- viable cells (Zombie UV negative cells) ([11]; Emricasan 9 μg/mL, no significant differences vs no treatment): ~50%
- in vitro absorbance and bioluminescence [12]: no differences in in vitro absorbance and bioluminescence
- in vivo ASC speck formation (in vivo FLI signals) ([13]; ASC-Citrine mice, 6 hours following Q-VD-OPH administration): virtually inhibited all in vivo ASC speck formation
- percentage of total ASC-Citrine expression in live cells ([13]; infected skin, day 1, treated vs untreated): not significantly different
- percentage of cells with ASC-Specks (PuLSA assay) ([13]; infected skin, day 1, vs untreated): substantially reduced percentage of cells with ASC-Specks
